This note sets out measurements from US20260364072A1, “METHODS FOR PROMOTING EXPANSION OF HUMAN CD34+ CELLS IN VIVO AND FOR PROMOTING NEURAL REGENERATION” (THE REGENTS OF THE UNIVERSITY OF CALIFORNIA, priority 2023, published 2026).

Molecules are shown by their SMILES.

For data set [1], the system named is KG-1a, MOLM-13 and HL-60 cells (SF3B family members, PTK2B-202). The data set can be described thus: Splice isoform biomarker qRT-PCR in human AML cell lines. Format: cell-based. As to conditions: 1 μM, 4 hr. How it is done: For quantitative analysis of splice isoform expression, RNA editing rates, and whole gene expression by qRT-PCR, cells or tissue fragments were harvested in RNA lysis buffer and total RNA was extracted using RNeasy mini or micro extraction kits (QIAGEN, Germantown, MD) following the manufacturer's protocol including a DNase incubation step to digest any trace genomic DNA present. Levels of ADAR1 variants and LSC-specific transcripts were quantified by qRT-PCR as previously described.^14 RNA-editing site-specific qRT-PCR (RESSqPCR) was performed for variants in AZIN1 transcripts.^53 Additional species-specific primers were also designed to quantify intron retention rates in cells treated with Rebecsinib as a biomarker of response to RNA splicing modulation. Specifically, for the two-step SYBR-green based assays, as previously described,^7,14,53 100-1000 ng of RNA were subjected to cDNA synthesis using the SUPERSCRIPT III™ (ThermoFisher Scientific) kit followed by qRT-PCR using SYBR GreenER (ThermoFisher Scientific) master mix according to the manufacturer's recommended procedures. qRT-PCR was performed using SYBR GREENER SUPER MIX™ (Life Technologies) on BioRad iQ5™, C1000 TOUCH™, or BioRad CFX384™ instruments. Human splice isoform-specific, RNA editing site-specific qPCR (RESSqPCR)^53. Primer sets that have not been previously published were designed and tested for efficiency followed by analyses in samples exposed to Rebecsinib, with species-specific HPRT primers used as controls. […] Relative mRNA expression values were calculated using the 2^−ΔCT method, with normalization to untreated or vehicle-treated controls.^54
For multi-species biomarker development and transcript variant-specific qRT-PCR experiments, human AML cell lines KG-1a, MOLM-13, and HL-60, and rat leukemia cells RBL-1 were grown to confluence and treated with 1 μM Rebecsinib for 4 hr. Cells were collected and lysed in Qiagen RNA lysis buffer, and analyzed using the species-specific primers and qRT-PCR procedures described above.

The nature of data set [2]: Rabbit single-dose toxicokinetic study. As to conditions: IV bolus. Format: in vivo, New Zealand white rabbits. On the procedure:
Pre-IND PD and toxicokinetic (TK) studies (FIG. 4D) were enabled by scalable Rebecsinib synthesis^34 and development of an optimized formulation for in vivo biodistribution (5% w/v EtOH, 5% w/v Kolliphor HS15 in 0.9% Sodium Chloride). In PK studies, Rebecsinib was detectable in rat, rabbit, and non-human primate (NHP) plasma following IV bolus administration. In rat TK studies, Rebecsinib was quantifiable up to 1-hour post-dose at 1 mg/kg and up to 4 hours post-dose at 3, 5, and 8 mg/kg (FIG. 4E). […] Rebecsinib T1/2 values were 0.342, 0.447, 0.313, and 0.530 hours at 1, 3, 5, and 8 mg/kg, respectively. […] Following 3, 10, and 20 mg/kg boluses, Rebecsinib was quantifiable in plasma 1 hour post-dose and could be detected up to 8 hours post-dosing with 40 mg/kg (FIG. 4F). […] Following 3, 10, 15, and 20 mg/kg of Rebecsinib, quantifiable plasma concentrations of Rebecsinib were observed through 8 hrs post-dose (FIG. 4G).
(FIG. 29D) Schematic diagram outlining multispecies toxicokinetic (TK) and pharmacodynamic studies in mammalian species treated in vivo with a single dose of Rebecsinib. Toxicokinetic analyses were performed in rats (n=6 per sex, per group), rabbits (n=2 per sex, per group), and non-human primates (NHPs, n=1 per sex, per group) and pharmacodynamic splice isoform quantification studies were performed in peripheral blood mononuclear cells (PBMCs) from NHP.
(FIG. 29E, FIG. 29F) For toxicokinetic analyses, rats (FIG. 29E) and rabbits (FIG. 29F) were given a single injection of Rebecsinib at 1-40 mg/kg, or vehicle control, and blood samples were drawn at regular intervals to determine plasma concentrations of the compound over 8 hr after treatment.
Single-dose TK studies were performed in Sprague Dawley rats (Charles River Labs, South San Francisco, CA), New Zealand white rabbits (BASi/Inotiv, West Lafayette, IN), and cynomolgus monkeys (BASi/Inotiv). Rat and rabbit studies included toxicology analyses, quantification of plasma levels of Rebecsinib, and necropsies to evaluate organ integrity after treatment. For NHP studies, health and ophthalmological evaluations were performed before and after dosing with Rebecsinib, and blood samples were collected for quantification of plasma levels of Rebecsinib and biomarker studies in PBMCs from treated and control animals. All monkeys were returned to the animal colony after the end of the observation period. Toxicokinetic values including mean plasma concentrations and t1/2 values were calculated according to CRO-approved protocols (Charles River and BASi).

The test system of data set [3] is ADAR1, CD44-012, PTK2B-202, MCL1 transcripts. As to the kind of experiment: Transcripts in human CD34+ cells from treated engrafted sAML mice (qRT-PCR, RNA-seq). Format: in vivo. How it is done:
FIG. […]
For RNA editing analyses of whole transcriptome sequencing data, previous datasets were utilized from CD34^+ cells isolated from the spleens of sAML50261-engrafted mice treated once weekly with Rebecsinib in a dose-response assay (5 or 10 mg/kg),^14 along with CD34^+ cells harvested from mice that were serially transplanted with CD34+ cells from sAML50261-engrafted mice that had been treated twice weekly with Rebecsinib at 10 mg/kg (no further treatment was delivered to serial transplant recipients). Due to limiting number of cells remaining after treatment, cells were pooled from n=4 to 5 mice per condition for sequencing. RNA editing analysis was performed as previously described.^5
For quantitative analysis of splice isoform expression, RNA editing rates, and whole gene expression by qRT-PCR, cells or tissue fragments were harvested in RNA lysis buffer and total RNA was extracted using RNeasy mini or micro extraction kits (QIAGEN, Germantown, MD) following the manufacturer's protocol including a DNase incubation step to digest any trace genomic DNA present. Levels of ADAR1 variants and LSC-specific transcripts were quantified by qRT-PCR as previously described.^14 RNA-editing site-specific qRT-PCR (RESSqPCR) was performed for variants in AZIN1 transcripts.^53 Additional species-specific primers were also designed to quantify intron retention rates in cells treated with Rebecsinib as a biomarker of response to RNA splicing modulation. Specifically, for the two-step SYBR-green based assays, as previously described,^7,14,53 100-1000 ng of RNA were subjected to cDNA synthesis using the SUPERSCRIPT III™ (ThermoFisher Scientific) kit followed by qRT-PCR using SYBR GreenER (ThermoFisher Scientific) master mix according to the manufacturer's recommended procedures. qRT-PCR was performed using SYBR GREENER SUPER MIX™ (Life Technologies) on BioRad iQ5™, C1000 TOUCH™, or BioRad CFX384™ instruments. Human splice isoform-specific, RNA editing site-specific qPCR (RESSqPCR)^53. Primer sets that have not been previously published were designed and tested for efficiency followed by analyses in samples exposed to Rebecsinib, with species-specific HPRT primers used as controls. Samples with Ct<35 for the species-specific reference gene, HPRT, were included in analyses. Relative mRNA expression values were calculated using the 2^−ΔCT method, with normalization to untreated or vehicle-treated controls.^54
In humanized mouse models, sAML cells (CD34^+) from two unique […] patient samples that were splicing factor mutated or unmutated were utilized, including sAML50261 and sAML2008-5.^14 For in vivo efficacy and therapeutic index studies, sAML CD34^+ cells, or normal human cord blood-derived or aged bone marrow-derived HSPCs (CD34^+), were transplanted (50,000-200,000 cells per mouse) intrahepatically into neonatal Rag2^−/−γc^−/− mice, or intravenously into adult NSG-SGM3 mice (Jackson Laboratories, Bar Harbor, ME). A subset of experiments was performed with normal aged bone marrow cells that were transduced with the lentiviral ADAR1 nanoluc-GFP reporter vector prior to transplant. For transplantation into adult mice, animals were irradiated with ^137Cs at a dose of 150 cGy 24 hr before IV transplantation. After engraftment levels reached >1% human CD45^+ hematopoietic cells in the peripheral blood, animals were distributed among treatment groups for treatment with Rebecsinib or vehicle control essentially as previously described, with an increased dosing regimen of twice weekly (versus once weekly in prior studies)^14 and an optimized in vivo formulation (2% w/w EtOH, 5% w/v KOLLIPHOR HS™ 15 in 0.9% saline). […]

The mark [4] stands for this setting: CD34+ cells, sAML50261 engrafted mice, vs vehicle.

With `CC[C@H](OC)[C@@H](C)[C@H]1O[C@@H]1[C@@H](O)[C@H](C)/C=C/C=C(\C)[C@H]1OC(=O)C[C@H](O)CC[C@@](C)(O)[C@@H](OC(C)=O)/C=C/[C@@H]1C` [Rebecsinib], in data set [1], the “expression of PTK2B-202 isoform” value is recorded as “Decreased expression of the LSC-related PTK2B-202 isoform”. For the same compound, the “intronic retention of SF3B family members” value in data set [1] (KG-1a, MOLM-13 and HL-60) is on record as “significant upregulation of intronic retention of SF3B family members”. In addition, the “SF3B3 intron retention response” value in data set [1] (across all cell lines) is “most potent and consistent response”. Besides, the “time quantifiable in plasma post-dose” value in data set [2] (3 mg/kg) came out at 1 h. Besides, in data set [2] (10 mg/kg), the “time quantifiable in plasma post-dose” value was 1 h. In data set [2] (20 mg/kg), the “time quantifiable in plasma post-dose” value turned out to be 1 h. In addition, the “last time detected in plasma post-dosing” value in data set [2] (40 mg/kg) is reported as “up to 8 hours”. Further, in data set [2] (plasma, read-out: plasma t1/2), the half-life was 7.2 to 53.4 min. Further, the “MCL1-S isoform expression in human CD34+ cells” value in data set [3] (CD34+ cells from bone marrows of treated mice) is “increase in the pro-apoptotic MCL1-S isoform expression”. Besides, in data set [3] (setting [4]), the CD44-012 splice isoform result is on record as “significant reduction”, the PTK2B-202 splice isoform result is “significant reduction” and the “total ADAR1 RNA expression by qRT-PCR” value is “significant reduction in total ADAR1 RNA expression”. In data set [3] (mice treated with 5 or 10 mg/kg, RNA-seq), the “MCL1 splice isoform switching” value is “splice isoform switching of MCL1-L to MCL1-S”. The “ADAR1 transcript splicing (RNA-seq)” value in data set [3] (sAML50261 engrafted mice, Rebecsinib-treated samples) was “unique retained intron regions and alternative splice site usage”.
